These results are taken from patent publication US8563553B2, “Compounds and compositions as protein kinase inhibitors” (Novartis AG, priority 2009, dated 2013).

Molecules are shown by their SMILES. pIC50: −log10 of the molar value.

For this assay, the target named is b-Raf(V600E) (Homo sapiens (Human), UniProt P15056, V600E). Nature of the assay: Raf/Mek Amplified Luminescence Proximity Homogeneous Assay (Alpha Screen). The class given is biochemical. To be noted: b-Raf(V600E) approximately 4 pM; biotinylated Mek, kinase dead approximately 10 nM; ATP 10 μM; pre-incubation 60 minutes; reaction 3 hours at room temperature; read-out: mut-B-RAF IC50. Here is the method: Raf/Mek Amplified Luminescence Proximity Homogeneous Assay
b-Raf(V600E), sequence (P15056 whole entry V600E): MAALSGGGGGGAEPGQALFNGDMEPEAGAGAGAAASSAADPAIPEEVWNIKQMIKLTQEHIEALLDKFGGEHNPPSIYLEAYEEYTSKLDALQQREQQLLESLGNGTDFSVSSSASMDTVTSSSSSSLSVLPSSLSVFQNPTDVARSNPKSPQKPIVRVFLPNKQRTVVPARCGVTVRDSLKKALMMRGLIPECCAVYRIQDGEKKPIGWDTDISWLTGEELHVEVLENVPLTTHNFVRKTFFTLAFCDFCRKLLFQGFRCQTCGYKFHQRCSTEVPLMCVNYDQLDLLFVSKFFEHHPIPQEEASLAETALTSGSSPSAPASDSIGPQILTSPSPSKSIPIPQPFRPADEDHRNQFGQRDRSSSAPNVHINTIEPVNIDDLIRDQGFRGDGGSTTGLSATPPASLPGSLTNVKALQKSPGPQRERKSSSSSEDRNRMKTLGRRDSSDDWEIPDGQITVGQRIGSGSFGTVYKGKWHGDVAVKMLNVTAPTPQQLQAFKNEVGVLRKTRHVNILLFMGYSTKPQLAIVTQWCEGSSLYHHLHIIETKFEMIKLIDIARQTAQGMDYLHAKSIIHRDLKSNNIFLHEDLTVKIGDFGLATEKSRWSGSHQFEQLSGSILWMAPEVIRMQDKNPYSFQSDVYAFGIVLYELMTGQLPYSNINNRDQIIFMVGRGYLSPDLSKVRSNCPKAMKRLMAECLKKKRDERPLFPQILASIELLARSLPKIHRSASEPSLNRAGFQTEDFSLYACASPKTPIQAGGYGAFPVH
Assay buffer: 50 mM Tris, pH 7.5, 15 mM MgCl2, 0.01% Bovine Serum Albumin (BSA), 1 mM dithiothreitol (DTT) Stop buffer: 60 mM ethylenediaminetetraacetic acid (EDTA), 0.01% Tween® 20 Bead buffer: 50 mM Tris, pH 7.5, 0.01% Tween® 20 […]
biotinylated Mek, kinase dead
Alpha Screen detection kit (available from PerkinElmer™, #6760617R)
Anti phospho-MEK1/2 (available from Cell Signaling Technology, Inc. #9121) 384 well assay plates (White Greiner® plates, #781207) […]
biotinylated Mek, Kinase dead approximately 10 nM
Pre-incubation time with compounds 60 minutes at room temperature
Reaction time 1 or 3 hours at room temperature
Raf and biotinylated Mek, kinase dead, were combined at 2× final concentrations in assay buffer (50 mM Tris, pH 7.5, 15 mM MgCl2, 0.01% BSA and 1 mM DTT) and dispensed 10 μl per well in assay plates (Greiner white 384 well assay plates #781207) containing 0.5 μl of 40× of a raf kinase inhibitor test compound diluted in 100% DMSO. The plate was incubated for 60 minutes at room temperature.
The Raf kinase activity reaction was started by the addition of 10 μL per well of 2×ATP diluted in assay buffer. […] Phosphorylated product was measured using a rabbit anti-p-MEK (Cell Signaling, #9121) antibody and the Alpha Screen IgG (ProteinA) detection Kit (PerkinElmer #6760617R), by the addition of 30 μL to the well of a mixture of the antibody (1:2000 dilution) and detection beads (1:2000 dilution of both beads) in bead buffer (50 mM Tris, pH 7.5, 0.01% Tween20). The additions were carried out under dark conditions to protect the detection beads from light. A lid was placed on top of the plate and incubated for 1 hour at room temperature, then the luminescence was read on a PerkinElmer Envision instrument. The concentration of each compound for 50% inhibition (IC50) was calculated by non-linear regression using XL Fit data analysis software.
In the case of `COC(=O)N[C@@H](C)CNc1nccc(-c2[nH]c(C(C)(C)C)nc2-c2cccc(NS(=O)(=O)CCC(F)(F)F)c2F)n1` [Example 4E, (S)-Methyl 1-(4-(2-tert-butyl-4-(2-fluoro-3-(3,3,3-trifluoropropylsulfonamido)phenyl)-1H-imidazol-5-yl)pyrimidin-2-ylamino)propan-2-ylcarbamate], the pIC50 (commonly the IC50 on a negative log10 scale, so that one unit is a factor of ten) is 8.97.

For the compound `COC(=O)N[C@@H](C)CNc1nccc(-c2[nH]c(C3CC3)nc2-c2cc(C)cc(NS(=O)(=O)C(C)C)c2)n1` [Example 4D, (S)-Methyl 1-(4-(2-cyclopropyl-4-(3-methyl-5-(1-methylethylsulfonamido)phenyl)-1H-imidazol-5-yl)pyrimidin-2-ylamino)propan-2-ylcarbamate], the pIC50 is 9.02.

As for `COC(=O)N[C@@H](C)CNc1nccc(-c2[nH]c(C(C)(C)C)nc2-c2cccc(NS(=O)(=O)C(C)C)c2F)n1` [Example 2D], the pIC50 was 9.11.

Regarding `CCCS(=O)(=O)Nc1cccc(-c2nc(C3CC3)[nH]c2-c2ccnc(NC[C@H](C)NC(=O)OC)n2)c1F` [Example 4C, (S)-Methyl 1-(4-(2-cyclopropyl-4-(2-fluoro-3-(propylsulfonamido)phenyl)-1H-imidazol-5-yl)pyrimidin-2-ylamino)propan-2-ylcarbamate], the pIC50 was 9.80.

Turning to `C[C@H](O)CNc1nccc(-c2[nH]c(C3CC3)nc2-c2cccc(NS(C)(=O)=O)c2F)n1` [Example 3B, (S)—N-(3-(2-cyclopropyl-5-(2-(2-hydroxypropylamino)pyrimidin-4-yl)-1H-imidazol-4-yl)-2-fluorophenyl)methanesulfonamide], the pIC50 was 7.55.

Consider `COC(=O)N[C@@H](C)CNc1nccc(-c2[nH]c(C3CC3)nc2-c2cccc(NS(C)(=O)=O)c2Cl)n1` [Example 1T, (S)-Methyl 1-(4-(4-(2-chloro-3-(methylsulfonamido)phenyl)-2-cyclopropyl-1H-imidazol-5-yl)pyrimidin-2-ylamino)propan-2-ylcarbamate], for which the pIC50 is 9.33.

With `COC(=O)N[C@@H](C)CNc1nccc(-c2[nH]c(C(C)(C)C)nc2-c2cccc(NS(=O)(=O)C3CC3)c2F)n1` [Example 2B, (S)-Methyl 1-(4-(2-tert-butyl-4-(3-(cyclopropanesulfonamido)-2-fluorophenyl)-1H-imidazol-5-yl)pyrimidin-2-ylamino)propan-2-ylcarbamate], the pIC50 is 9.57.

On to `CCCNc1nccc(-c2[nH]c(C3CC3)nc2-c2cc(F)cc(NS(C)(=O)=O)c2Cl)n1` [Example 1AP, N-(2-Chloro-3-(2-cyclopropyl-5-(2-(propylamino)pyrimidin-4-yl)-1H-imidazol-4-yl)-5-fluorophenyl)methanesulfonamide], for which the pIC50 is 8.30.

For `COC(=O)N[C@@H](C)CNc1nccc(-c2[nH]c(C(C)(C)C)nc2-c2cc(NS(=O)(=O)C3CC3)c(C)c(OC)c2)n1` [Example 1L, (S)-Methyl 1-(4-(2-tert-butyl-4-(3-(cyclopropanesulfonamido)-5-methoxy-4-methylphenyl)-1H-imidazol-5-yl)pyrimidin-2-ylamino)propan-2-ylcarbamate], the pIC50 was 6.80.

On to `COC(=O)N[C@@H](C)CNc1nccc(-c2[nH]c(C3CC3)nc2-c2cc(Cl)cc(NS(=O)(=O)c3cc(F)cc(F)c3)c2F)n1` [Example 1BM, (S)-Methyl 1-(4-(4-(5-chloro-3-(3,5-difluorophenylsulfonamido)-2-fluorophenyl)-2-cyclopropyl-1H-imidazol-5-yl)pyrimidin-2-ylamino)propan-2-ylcarbamate], for which the pIC50 is 9.43.

Turning to `CCCS(=O)(=O)Nc1cc(F)cc(-c2nc(C(C)(C)C)[nH]c2-c2ccnc(NC[C@H](C)NC(=O)OC)n2)c1Cl` [Example 1AH], the pIC50 was 9.00.

For the compound `COC(=O)N[C@@H](C)CNc1nccc(-c2[nH]c(C(C)(C)C)nc2-c2cc(Cl)cc(NS(C)(=O)=O)c2F)n1` [Example 1AI, (S)-Methyl 1-(4-(2-tert-butyl-4-(5-chloro-2-fluoro-3-(methylsulfonamido)phenyl)-1H-imidazol-5-yl)pyrimidin-2-ylamino)propan-2-ylcarbamate], the pIC50 is 9.55.
